Experiments:
[1] = r1 relaxivity measurements (20 MHz, 0.5 T, 37° C.); format: physicochemical; details: 100 mM Tris buffer; for r1 0.6 mM HSA alone / r1 No Zn^2+: no Zn^2+; for r1 With Zn^2+ / r1 Zn^2+ + 0.6 mM HSA: CA:Zn = 1:1; for r1 No Zn^2+: no HSA
Description: Longitudinal relaxation times were measured using inversion recovery method on a MRS-6 NMR analyzer from the Institute Joz̆ef Stefan (Ljubljana, Slovenija) operating at 20 MHz. Relaxivity was determined by linear regression analysis of the relaxation rates of five solutions (0-1.0 mM). All samples were measured at 310 K using a warm air blower. Five different sample concentrations (0, 0.25, 0.5, 0.75, 1.0 mM) of gadolinium complex were made up in Tris buffer at 0.1 M and pH 7.4 to generate the relaxivity value for the free complex. ZnCl2 was then added to each of the above sample to produce a [Gd]:[Zn] ratio of 1:1. After 30 min of incubation at 310 K, T1 measurements were performed, from which the relaxivity of sensor-Zn^2+ was calculated. Finally, HSA was added to each of above sample to achieve HSA concentration of 0.6 mM. After further incubation at 310 K for 30 min, T1 of each sensor-Zn^2+-HSA adduct was measured, from which the relaxivity of sensor-Zn^2+-HSA adduct was calculated. Zinc titrations were performed with constant [GdL]=0.5 mM and increasing amounts of [Zn^2+]=0-2 mM in Tris buffer at 0.1 M and pH 7.4.

[2] = GdL-Zn dissociation constants by fluorescence (ZnAF-2F competition); format: binding; details: K2 in FIG. 4; Tris buffer; read-out: KD(GdLZn)
Description: The procedures reported by Esqueda et al were followed (Esqueda et al., 2009). Solutions containing 1 μM of ZnAF-2F, 0.05 μM ZnCl2 and 100 μM GdL sensors were prepared in TRIS buffer. Aliquots of this solution were 3-fold diluted serially 10 times by addition of a buffered solution containing the same concentration of ZnAF-2F and ZnCl2 but no agent. The fluorescence was measured in triplicate in 96 well plates (100 μL). In a similar manner solutions containing agent, ZnCl2 but no fluorescent probe, were prepared and fluorescence measured by triplicate to account for any signal coming from the agent interacting with Zn^2+. The excitation and emission wavelengths used were 492 and 514 nm, respectively. The Zn dissociation constant was determined by fitting the data to the following equations:
[formula] F is the measured corrected fluorescence. Fmin is the minimal fluorescence observed in the competition binding experiment. Fmax corresponds to the fluorescence in absence of competitor. [GdL]o is the concentration of the zinc sensor chosen. IC50 corresponds to the concentration of competitor that decreases by 50% the % F. K′D is the dissociation constant of the competitor. [FP]o is the total concentration of the fluorescent probe. KD is the dissociation constant of the fluorescent probe and Zn^2+.

mouse pancreas = experiment: In vivo MR imaging of glucose stimulated insulin secretion (GSIS) in the mouse pancreas; set-up: species or system C57B1/6 mice; details: for T1-weighted MR image enhancement in pancreatic tissues and kidneys: over the first 10-15 min after injection
From the text: Both phases of insulin secretion are considered essential, but the early RRP phase that is thought to be the first signal reduced during the development of type 2 diabetes (Komatsu et al., 2013; Hosker et al., 1989). In principle, both phases of insulin secretion should be detectable by MRI if enough sensor is present in the extracellular space during the time-course of these events. Biphasic GSIS was not detected by MRI in previous experiments using the first generation Zn^2+ sensors with a high affinity for Zn^2+ but we hypothesized that GSIS may be more easily detected using these second-generation agents having a much lower affinity for Zn^2+. To test this, dynamic MRI scans were collected after administering either GdL1, GdL2, GdL3 or GdL4 to C57B1/6 mice via a tail vein (0.07 mmol/kg). Nearly simultaneously with agent injection, a bolus (50 μL) of 20% w/v glucose was administered IP to stimulate secretion of insulin.
All animal experiments were performed in accordance with guidelines set by the UT Southwestern Institutional Animal Care and Use Committee (IACUC). Male C57b1/6 mice were fasted for at least 12 hours before imaging experiments. The animals were anaesthetized with isofluorane and catheterized via the tail vein. Once the animals were secured inside a 38 mm volume coil, the pancreas was positioned in the center of the 9.4 T Varian MRI scanner. Two 3D T1-weighted gradient echo pre-injection scans were obtained (TE/TR=1.69/3.34 ms, NEX8, Matrix=128×128 ×128). 70 μl of 20 mM contrast agent were injected i.v. and 50 μl of 20% w/v D-glucose were injected intraperitoneally and consecutive 3D T1-weighted scans were obtained sequentially to monitor signal enhancement in the pancreas. Identification of the pancreas was accomplished by locating the tissues surrounded by the spleen, stomach, and kidneys. A total of 3 animals were scanned per group and images were quantified and analyzed using ImageJ (National Institutes of Health, Bethesda, Md.). The signal intensities from ROIs of the tip of the pancreas were measured before, at every ˜3-4 minutes post D-glucose injection over 30 minutes total. The values were normalized to the signal intensity obtained from a water phantom placed on the mouse abdomen. Contrast enhancement was calculated using the formula
[formula] Statistical analysis was performed by comparing the mean values using a two-tailed t-test. Statistical difference was evaluated using t-scores and p-values at a 95 and 99% confidence level.

SMILES	r1 0.6 mM HSA alone [1] [s⁻¹ mM⁻¹]	r1 With Zn^2+ [1]	r1 Zn^2+ + 0.6 mM HSA [1]	r1 No Zn^2+ [1] [s⁻¹ mM⁻¹]	Kd [2] [nM]	T1-weighted MR image enhancement in pancreatic tissues and kidneys (mouse pancreas; 0.07 mmol/kg i.v., glucose IP)	pancreatic response at 3 minutes (FIG. 7A) (mouse pancreas; post-glucose stimulation)	dynamic images: phases of insulin secretion detected (mouse pancreas; 0.07 mmol/kg i.v., glucose IP, n=3)	Area under the curve (AUC) t=11−19 minutes post-glucose stimulation (FIG. 7C) (mouse pancreas; compared to control Gd-HPDO3A and GdL1)	enhancement profile from pancreas ROI normalized to external phantom (FIG. 7B) (mouse pancreas; mouse, in vivo)	pancreatic response at 15 minutes (FIG. 7A) (mouse pancreas; post-glucose stimulation)
O=C(O)CN1CCN(CC(=O)O)CCN(CC(=O)NCCN(Cc2ccccn2)Cc2ccccn2)CCN(CC(=O)O)CC1 [GdL1]	5.8 ± 0.1	5.2 ± 0.1^b s^−1 mM^−1	17.8 ± 0.5^b s^−1 mM^−1	4.8 ± 0.1	118	significant image enhancements	enhance the pancreas				
O=C(O)CN1CCN(CCC(=O)NCCN(Cc2ccccn2)Cc2ccccn2)CCN(CC(=O)O)CCN(CC(=O)O)CC1 [GdL2]	6.5 ± 0.1	5.5 ± 0.1^b s^−1 mM^−1	19.8 ± 0.6^b s^−1 mM^−1	4.9 ± 0.1	190 ± 5	significant image enhancements					
O=C(O)CCN1CCN(CC(=O)O)CCN(CC(=O)NCCN(Cc2ccccn2)Cc2ccccn2)CCN(CC(=O)O)CC1 [GdL3]	6.9 ± 0.2	5.4 ± 0.1^b s^−1 mM^−1	21.5 ± 0.7^b s^−1 mM^−1	5.0 ± 0.1	185 ± 5	significant image enhancements					
O=C(O)CN1CCN(CC(=O)O)CCN(CC(=O)NCCN(CCc2ccccn2)Cc2ccccn2)CCN(CC(=O)O)CC1 [GdL4]	5.6 ± 0.1	5.1 ± 0.1^b s^−1 mM^−1	11.4 ± 0.3^b s^−1 mM^−1	4.7 ± 0.1	2350		enhance the pancreas	both early phase (3-4 min) and late phase (13-17 min) insulin secretion	improved bi-phasic profile	distinct bi-phasic profile	shows second-phase enhancement
O=C(O)CN1CCN(CCC(=O)NCCN(CCc2ccccn2)Cc2ccccn2)CCN(CC(=O)O)CCN(CC(=O)O)CC1 [GdL5]	6.3 ± 0.2	5.3 ± 0.1^b s^−1 mM^−1	10.4 ± 0.3^b s^−1 mM^−1	4.9 ± 0.1	2570 ± 54						

Source: patent publication US11713305B2, “Zinc sensors for in vivo imaging of beta-cell function by MRI” (The Board of Regents of the University of Texas System, priority 2017, dated 2023)
